Patent US20110288052A1, “NOVEL COMPOUNDS, PHARMACEUTICAL COMPOSITIONS CONTAINING SAME, AND METHODS OF USE FOR SAME” (priority 2008, published 2011)
Values after ≈ are worked out from the molar mass of the structure shown. Where two headings read alike, the source gives them in different places.

Tests used:
[1] = system: MCF-7 human breast cancer cells (fatty acid oxidation pathway activity); experiment: Fatty acid oxidation ([14C]palmitate to acid soluble products); format: cell-based; details: for Emax at 1.56 µg/mL: at 1.56 μg/ml; for FAO SC 150: concentration leading to 150% of control acid soluble products, Neg = threshold not reached; for Emax at 0.098 µg/mL: at 0.098 μg/ml; for Emax at 6.25 µg/mL: at 6.25 μg/ml
Method: Measurement of Fatty Acid Oxidation and Determination of SC150 of Compounds This assay measures the degradation of [^14C]palmitate into acid soluble products and is a measure of fatty acid oxidation pathway activity in vitro. It is utilized to measure fatty acid oxidation in vitro. MCF-7 human breast cancer cells cultured as above, are plated at 2.5×10^5 cells per well in 24-well plates. Following overnight incubation, the compounds to be tested, solubilized in DMSO, are added at […], 0.39, 1.56, 6.25, 25, and 100 μg/ml in triplicate, with lower concentrations tested if necessary. DMSO is added to triplicate wells for a vehicle control. C75 is run at 5 and 10 μg/ml in triplicate as positive controls. After 1 hour of incubation, medium is removed 100 uM of [^14C] palmitate in cyclodextran and 200 uM carnitine in serum free medium (250 μl volume) is added to each well. After 30 minutes of additional incubation, the reaction is stopped by addition of 2.6N HClO4. Contents of each well are transferred to 1.5 ml Eppendorf tubes and 4N KOH is added. The tubes are incubated for 30 minutes at 60° C. 1 M NaAcetate and 3N H2SO4 is added to each tube and vortexed. The tubes are centrifuged at 1000 rpm for 5 minutes at RT. 250 μl of the supernatant is transferred to a 2 ml eppendorf tube. To each tube is added: 938 μl of chloroform:methanol (1:1), 468 μl chloroform and 281 μl of deionized water. The tubes are vortexed and centrifuged at 1000 rpm for 5 minutes at RT. 750 μl of the upper phase is transferred into a scintillation vial 5 ml of scintillant is added and vials are counted for 1 minute for ^14C. The Beckman Scintillation counter calculates the average cpm values for triplicates. The SC150 for the compounds is defined as the concentration of drug leading to a 150% increase in production of acid soluble products of [^14C] palmitate as compared to untreated controls. This is determined by plotting the average cpm for each inhibitor concentration tested, performing linear regression and computing the best-fit line, r^2 values, and 95% confidence intervals. The average cpm values are computed by the Beckman scintillation counter (Model LS6500) for each compound concentration. Computation of linear regression, best-fit line, r^2, and 95% confidence intervals are calculated using Prism Version 3.0 (Graph Pad Software). If a compound fails to achieve this 150% threshold it is considered negative. The maximum value achieved is also reported (FAO Max).

[2] = Solubility problem noted during the assays; format: physicochemical; details: for solubility: read-out: Sol Prob (solubility problem at concentration)
[3] = Weight loss screen; format: in vivo, Balb/C mice; details: 60 mg/kg intraperitoneally
Method: Weight Loss Screen Balb/C mice (Jackson Labs) are utilized for the initial weight loss screening. Animals are housed in temperature and 12 hour day/night cycle rooms and fed mouse chow and water ad lib. Three mice are utilized for each compound tested with vehicle controls in triplicate per experiment. For the experiments, mice are housed separately for each compound tested three mice to a cage. Compounds are diluted in DMSO at 10 mg/ml and mice are injected intraperitoneally with 60 mg/kg in approximately 100 μl of DMSO or with vehicle alone. Mice are observed and weighed daily; average weights and standard errors are computed with Excel (Microsoft). The experiment continues until treated animals reach their pretreatment weights.

[4] = system: Staphylococcus aureus (ATCC # 29213); experiment: Broth microdilution antimicrobial assay, S. aureus; format: cell-based
Method: (§1) Antimicrobial Properties A broth microdilution assay is used to assess the antimicrobial activity of the compounds. Compounds are tested at twofold serial dilutions, and the concentration that inhibits visible growth (OD600 at 10% of control) is defined as the MIC. Microorganisms tested include Staphylococcus aureus (ATCC # 29213), Enterococcus faecalis (ATCC # 29212), Pseudomonas aerpginosa (ATCC # 27853), and Escherichia coli (ATCC # 25922). The assay is performed in two growth media, Mueller Hinton Broth and Trypticase Soy Broth.
(§2) A blood (Tsoy/5% sheep blood) agar plate is inoculated from frozen stocks maintained in T soy broth containing 10% glycerol and incubated overnight at 37° C. Colonies are suspended in sterile broth so that the turbidity matches the turbidity of a 0.5 McFarland standard. The inoculum is diluted 1:10 in sterile broth (Mueller Hinton or Trypticase soy) and 195 μl is dispensed per well of a 96-well plate. The compounds to be tested, dissolved in DMSO, are added to the wells in 5 μl volume at the following concentrations: 25, 12.5, 6.25, 3.125, 1.56 and 0.78 μg/ml in duplicate. Additional concentrations are tested if required. 5 μl of DMSO added to duplicate wells are the vehicle control. Serial dilutions of positive control compounds, vancomycin (E. faecalis and S. aureus) and tobramycin (E. coli and P. aerpginosa), are included in each run.
(§3) After 24 hours of incubation at 37° C., plates are read at OD600 on a Molecular Devices SpectraMax Plus Spectrophotometer. Average OD600 values are computed using SOFTmax Pro Software (Molecular Devices) and MIC values are determined by linear regression analysis using Prism version 3.02 (Graph Pad Software, San Diego). The MIC is defined as the concentration of compound required to produce an OD600 reading equivalent to 10% of the vehicle control reading.

[5] = system: Enterococcus faecalis (ATCC # 29212); experiment: Broth microdilution antimicrobial assay, E. faecalis; format: cell-based; details: for MIC: Enterococcus faecalis, ATCC29212
Method: as §1, §2, §3

[6] = Homo sapiens, MCF7, read-out: FAO Max
[7] = ATCC29213, Mueller Hinton Broth, read-out: SA/MH (MIC)
[8] = ATCC29213, Trypticase Soy Broth, read-out: SA/Tsoy (MIC)

| Compound | Emax at 1.56 µg/mL [1, 6] [%] | FAO SC 150 [1] | solubility [2] [µg/mL] | EF/MH (MIC) ([5]; Mueller Hinton Broth) | EF/Tsoy (MIC) ([5]; Trypticase Soy Broth) | also measured |
| --- | --- | --- | --- | --- | --- | --- |
| CCCCCCCCC1(C)SC(=O)C=C1OCC(=O)Nc1cccc(OC(F)(F)F)c1 (stereo not drawn) | 122 | Neg | 40 (≈ 87 µM) | – | – | – |
| CCCCCCCCC1(C)SC(=O)C=C1OCC(=O)Nc1ccc(Cl)cc1 (stereo not drawn) | 106 | Neg | – | Neg | – | Weight Loss ([3]; day 1): 60 mg/kg: 0.2% (day 1); MIC [4, 7]: 6 µg/mL (≈ 14.6 µM); MIC [4, 8]: 3 µg/mL (≈ 7.32 µM); MIC ([5]; Trypticase Soy Broth, read-out: EF/Tsoy (MIC)): 44 µg/mL (≈ 107 µM); Solubility remark on FAS IC50 ([2]; FAS assay): Limited by Solubility |
| CCCCCCCCC1(C)SC(=O)C=C1OCC(=O)Nc1cccc(C(F)(F)F)c1 (stereo not drawn) | – | Neg | 80 (≈ 180 µM) | – | – | Emax at 0.395 µg/mL ([1]; Homo sapiens, MCF7, at 0.395 μg/ml, read-out: FAO Max): 75% |
| CCCCCCCCOc1ccc(NC(=O)COC2=CC(=O)SC2(C)CCCCCCCC)cc1 (stereo not drawn) | – | Neg | – | Neg | Neg | Emax at 0.098 µg/mL [1, 6]: 97% |
| CCCCCCCCC1(C)SC(=O)C=C1OCC(=O)Nc1ccccc1N1CCCCC1 (stereo not drawn) | 119 | Neg | – | Neg | Neg | – |
| CCCCCCCCC1(C)SC(=O)C=C1OCC(=O)Nc1ccccc1SC (stereo not drawn) | – | Neg | 40 (≈ 94.9 µM) | – | – | Emax at 6.25 µg/mL [1, 6]: 114% |
| CCCCCCCC[C@]1(C)SC(=O)C=C1OCC(=O)Nc1ccccc1OC(F)(F)F | – | Neg | – | – | – | Emax at 25 µg/mL ([1]; Homo sapiens, MCF7, at 25 μg/ml, read-out: FAO Max): 116% |
| CCCCCCCC[C@]1(C)SC(=O)C=C1OCC(=O)Nc1ccccc1C(F)(F)F | 105 | Neg | 80 (≈ 180 µM) | – | – | – |
| CCCCCCCCC1(C)SC(=O)C=C1OCC(=O)Nc1ccccc1 (stereo not drawn) | – | Neg | – | Neg | Neg | Emax at 0.098 µg/mL [1, 6]: 122% |
| CCCCCCCCC1(C)SC(=O)C=C1OCC(=O)Nc1ccc(OC)cc1 (stereo not drawn) | – | Neg | – | Neg | Neg | Emax at 0.098 µg/mL [1, 6]: 90% |
| CCCCCCCCC1(C)SC(=O)C=C1OCC(=O)Nc1ccc(C(F)(F)F)cc1 (stereo not drawn) | – | Neg | – | Neg | Neg | Emax at 6.25 µg/mL [1, 6]: 130% |
| CCCCCCCCC1(C)SC(=O)C=C1OCC(=O)Nc1ccc(Oc2ccc(Cl)cc2)cc1 (stereo not drawn) | – | Neg | – | Neg | Neg | Weight Loss ([3]; day 4): 60 mg/kg: 3.1% (day 4); Emax at 6.25 µg/mL [1, 6]: 109% |
| CCCCCCCCC1(C)SC(=O)C=C1OCC(=O)Nc1ccc(Cl)cc1Cl (stereo not drawn) | 141 | Neg | 40 (≈ 90 µM) | – | – | – |
| CCCCCCCCC1(C)SC(=O)C=C1OCC(=O)Nc1ccc(-c2cccs2)cc1 (stereo not drawn) | – | 61.9 µg/mL | – | Neg | Neg | Emax at 100 µg/mL ([1]; Homo sapiens, MCF7, at 100 μg/ml, read-out: FAO Max): 168% |
| CCCCCCCCC1(C)SC(=O)C=C1OCC(=O)Nc1ccc(Cl)cc1C(F)(F)F (stereo not drawn) | 141 | 1.9 µg/mL | – | Neg | Neg | – |
| CCCCCCCCC1(C)SC(=O)C=C1OCC(=O)Nc1ccc2c(c1)OCO2 (stereo not drawn) | – | Neg | – | Neg | Neg | Emax at 0.098 µg/mL [1, 6]: 45% |
| CCCCCCCCC1(C)OC(=O)C=C1OCC(=O)Nc1ccc(Cl)cc1 (stereo not drawn) | – | Neg | 80 (≈ 203 µM) | – | Neg | Emax at 0.39 µg/mL ([1]; Homo sapiens, MCF7, at 0.39 μg/ml, read-out: FAO Max): 95%; MIC [4, 7]: 6 µg/mL (≈ 15.2 µM); MIC [4, 8]: 3 µg/mL (≈ 7.62 µM); MIC ([5]; Mueller Hinton Broth, read-out: EF/MH (MIC)): 70 µg/mL (≈ 178 µM) |
| CCCCCCCCC1(C)SC(=O)C=C1OCC(=O)Nc1ccc(OC(F)(F)F)cc1 (stereo not drawn) | – | – | – | Neg | Neg | Weight Loss ([3]; day 1): 60 mg/kg: 2.2% (day 1) |
| CCCCCCCCC1(C)SC(=O)C=C1OCC(=O)Nc1ccc(SC)cc1 (stereo not drawn) | – | Neg | 40 (≈ 94.9 µM) | – | – | Emax at 6.25 µg/mL [1, 6]: 100% |
